In paper PMC3735853 (Journal of biomolecular screening, 2013):
Read-outs that look alike come from different tables or passages of the source.

Columns and labels:
hV2R[L^83Q] = hV2R[L^83Q] (Homo sapiens, UniProt P30518, L83Q); experiment: uHTS optimized primary V2R pharmacoperone assay; type: cell-based; conditions: for LOPAC Screen Average %Response +/−Std Dev: single concentration of 6 μM (0.4% DMSO), normalized to 100 nM SR121463 (positive) and DMSO (negative), triplicate
V2R = conditions: cited from earlier work

SMILES	EC50 (hV2R[L^83Q]) [nM]	LOPAC Screen Average %Response +/−Std Dev (hV2R[L^83Q])	lowest level detectable in the assay system (hV2R[L^83Q]; no-wash protocol) [nM]	EC50 (hV2R[L^83Q]; read-out: EC50 (pharmacoperone rescue), presence of 1 μM vasopressin, no-wash protocol, absence of doxycycline (n=4)) [nM]	Ki (V2R; read-out: Ki (antagonist), no reference given) [nM]	Ki (V2R; read-out: Ki of SR121463 (literature value), used to perform the fit) [nM]
C[C@H]1CCC/C=C/[C@@H]2C[C@H](O)C[C@H]2[C@H](O)/C=C/C(=O)O1 [Brefeldin A]	270	43+/−1%				
C=C[C@@]1(C)CC(=O)[C@]2(O)[C@@]3(C)[C@@H](O)CCC(C)(C)[C@@H]3[C@H](O)[C@H](OC(C)=O)[C@@]2(C)O1 [Forskolin]	430	104+/−0%				
Cc1ccccc1N1CCN(S(=O)(=O)C[C@]23CC[C@H](C[C@@H]2NC(=O)[C@@H](N)CCS(C)(=O)=O)C3(C)C)CC1 [L-368,899]		74+/−2%				
CCOc1ccc2c(c1)C1(CCC(OCCN3CCOCC3)CC1)C(=O)N2S(=O)(=O)c1ccc(C(=O)NC(C)(C)C)cc1OC (stereo not drawn) [SR121463]			1	1.97 ± 0.25	~1	0.94
